According to PubChem BioAssay AID1963842 (Molecular Pharmacology Branch, DTP, NCI, 2024):

Tested on: 677734-321-R-J1-PDC complex spheroid viability
Experiment: Anticancer human tumor 677734-321-R-J1-PDC patient-derived soft tissue sarcoma cell line growth inhibition [POLQ]
Settings: for IC50: curve of first compound; for viability, T/C: stronger effect = lower value
Procedure, shortened: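 Complex spheroid viability model combining PDC tumour cells with endothelial (HUVEC) and MSC stromal cells. Novobiocin, ART-558 or RP6685 were tested singly and in combination with standard and investigational anticancer drugs. Each was titrated in half-log steps from near clinical Cmax, or from 10 microM where Cmax was unknown.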

[1] = second compound 0.0316 µM, first compound 0.0316 µM
[2] = second compound 0.0316 µM, first compound 0.1 µM
[3] = second compound 0.0316 µM, first compound 0.316 µM
[4] = second compound 0.0316 µM, first compound 1 µM
[5] = second compound 0.0316 µM, first compound 3.16 µM
[6] = second compound 0.0316 µM, first compound 10 µM
[7] = second compound 0.1 µM, first compound 0.0316 µM
[8] = second compound 0.1 µM, first compound 0.1 µM
[9] = second compound 0.1 µM, first compound 0.316 µM
[10] = second compound 0.1 µM, first compound 1 µM
[11] = second compound 0.1 µM, first compound 3.16 µM
[12] = second compound 0.1 µM, first compound 10 µM
[13] = second compound 0.316 µM, first compound 0.0316 µM
[14] = second compound 0.316 µM, first compound 0.1 µM
[15] = second compound 0.316 µM, first compound 0.316 µM
[16] = second compound 0.316 µM, first compound 1 µM
[17] = second compound 0.316 µM, first compound 3.16 µM
[18] = second compound 0.316 µM, first compound 10 µM
[19] = second compound 1 µM, first compound 0.0316 µM
[20] = second compound 1 µM, first compound 0.1 µM
[21] = second compound 1 µM, first compound 0.316 µM
[22] = second compound 1 µM, first compound 1 µM
[23] = second compound 1 µM, first compound 3.16 µM
[24] = second compound 1 µM, first compound 10 µM
[25] = second compound 3.16 µM, first compound 0.0316 µM
[26] = second compound 3.16 µM, first compound 0.1 µM
[27] = second compound 3.16 µM, first compound 0.316 µM
[28] = second compound 3.16 µM, first compound 1 µM
[29] = second compound 3.16 µM, first compound 3.16 µM
[30] = second compound 3.16 µM, first compound 10 µM
[31] = second compound 10 µM, first compound 0.0316 µM
[32] = second compound 10 µM, first compound 0.1 µM
[33] = second compound 10 µM, first compound 0.316 µM
[34] = second compound 10 µM, first compound 1 µM
[35] = second compound 10 µM, first compound 3.16 µM
[36] = second compound 10 µM, first compound 10 µM
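Further: spheroids exposed to compounds for one week.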
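Wherever viability, T/C is given: 100% = vehicle DMSO treated spheroids.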

COc1cc(C2c3cc4c(cc3C(OC3OC5COC(C)OC5C(O)C3O)C3COC(=O)C23)OCO4)cc(OC)c1O (stereo not drawn) + Nc1ccc(C#CCN(C(=O)Cc2ncc(C(F)(F)F)cc2C(F)(F)F)c2ccc(F)cc2)nn1
IC50 (second compound 0.0316 µM): 417 nM
IC50 (second compound 0.1 µM): 482 nM
IC50 (second compound 0.316 µM): 315 nM
IC50 (second compound 1 µM): 375 nM
IC50 (second compound 3.16 µM): 341 nM
IC50 (second compound 10 µM): 219 nM
viability, T/C [1]: 98.2%
viability, T/C [2]: 93.8%
viability, T/C [3]: 47.1%
viability, T/C [4]: 37.2%
viability, T/C [5]: 16.8%
viability, T/C [6]: 10.4%
viability, T/C [7]: 97.4%
viability, T/C [8]: 92.5%
viability, T/C [9]: 45.8%
viability, T/C [10]: 46%
viability, T/C [11]: 11.4%
viability, T/C [12]: 8.28%
viability, T/C [13]: 122%
viability, T/C [14]: 102%
viability, T/C [15]: 45%
viability, T/C [16]: 29.6%
viability, T/C [17]: 12.6%
viability, T/C [18]: 10.6%
viability, T/C [19]: 111%
viability, T/C [20]: 75.3%
viability, T/C [21]: 54%
viability, T/C [22]: 36.2%
viability, T/C [23]: 15.4%
viability, T/C [24]: 8.43%
viability, T/C [25]: 101%
viability, T/C [26]: 89.2%
viability, T/C [27]: 41.8%
viability, T/C [28]: 36.6%
viability, T/C [29]: 12.5%
viability, T/C [30]: 10%
viability, T/C [31]: 108%
viability, T/C [32]: 72.6%
viability, T/C [33]: 31%
viability, T/C [34]: 35.5%
viability, T/C [35]: 12.5%
viability, T/C [36]: 8.79%

CC1COCCN1c1cc(-c2ccnn2C)c2ccnc(-c3ccn[nH]3)c2n1 (stereo not drawn) + Nc1ccc(C#CCN(C(=O)Cc2ncc(C(F)(F)F)cc2C(F)(F)F)c2ccc(F)cc2)nn1
IC50 (second compound 0.0316 µM): 87.7 nM
IC50 (second compound 0.1 µM): 69.4 nM
IC50 (second compound 0.316 µM): 59.5 nM
IC50 (second compound 1 µM): 60.5 nM
IC50 (second compound 3.16 µM): 56.6 nM
IC50 (second compound 10 µM): 55.1 nM
viability, T/C [1]: 74.6%
viability, T/C [2]: 46.8%
viability, T/C [3]: 11.6%
viability, T/C [4]: 8.34%
viability, T/C [5]: 8.12%
viability, T/C [6]: 8.31%
viability, T/C [7]: 92.1%
viability, T/C [8]: 30.4%
viability, T/C [9]: 10.6%
viability, T/C [10]: 9.63%
viability, T/C [11]: 8.82%
viability, T/C [12]: 8.21%
viability, T/C [13]: 82.1%
viability, T/C [14]: 23.7%
viability, T/C [15]: 8.36%
viability, T/C [16]: 8.25%
viability, T/C [17]: 7.35%
viability, T/C [18]: 8.3%
viability, T/C [19]: 89.5%
viability, T/C [20]: 19.4%
viability, T/C [21]: 9.09%
viability, T/C [22]: 10.1%
viability, T/C [23]: 7.46%
viability, T/C [24]: 7.2%
viability, T/C [25]: 77%
viability, T/C [26]: 21.9%
viability, T/C [27]: 17.6%
viability, T/C [28]: 8.48%
viability, T/C [29]: 7.93%
viability, T/C [30]: 7.03%
viability, T/C [31]: 82.8%
viability, T/C [32]: 15%
viability, T/C [33]: 9.59%
viability, T/C [34]: 9.21%
viability, T/C [35]: 10.5%
viability, T/C [36]: 11.5%

CCc1cc2c(N3CCc4c(cc(Cn5ccnc5)cc4-c4cn(C)nc4C(F)(F)F)C3=O)cc(C)nc2c(OC)n1 + Nc1ccc(C#CCN(C(=O)Cc2ncc(C(F)(F)F)cc2C(F)(F)F)c2ccc(F)cc2)nn1
IC50 (second compound 0.0316 µM): > 10000 nM
IC50 (second compound 0.1 µM): 6090 nM
IC50 (second compound 0.316 µM): 7570 nM
IC50 (second compound 1 µM): 5900 nM
IC50 (second compound 3.16 µM): 5710 nM
IC50 (second compound 10 µM): 4500 nM
viability, T/C [1]: 100%
viability, T/C [2]: 101%
viability, T/C [3]: 85%
viability, T/C [4]: 76.3%
viability, T/C [5]: 63.8%
viability, T/C [6]: 61.8%
viability, T/C [7]: 102%
viability, T/C [8]: 94.2%
viability, T/C [9]: 77.6%
viability, T/C [10]: 78.5%
viability, T/C [11]: 53.4%
viability, T/C [12]: 45.1%
viability, T/C [13]: 104%
viability, T/C [14]: 93.6%
viability, T/C [15]: 96.4%
viability, T/C [16]: 91.2%
viability, T/C [17]: 73.2%
viability, T/C [18]: 42.1%
viability, T/C [19]: 116%
viability, T/C [20]: 88%
viability, T/C [21]: 100%
viability, T/C [22]: 90.1%
viability, T/C [23]: 60%
viability, T/C [24]: 39.1%
viability, T/C [25]: 107%
viability, T/C [26]: 97.3%
viability, T/C [27]: 96.6%
viability, T/C [28]: 95.2%
viability, T/C [29]: 65%
viability, T/C [30]: 35.6%
viability, T/C [31]: 110%
viability, T/C [32]: 88.5%
viability, T/C [33]: 91.4%
viability, T/C [34]: 86.5%
viability, T/C [35]: 55.5%
viability, T/C [36]: 29.8%

COc1cccc2c1C(=O)c1c(O)c3c(c(O)c1C2=O)CC(O)(C(=O)CO)CC3OC1CC(N)C(O)C(C)O1 (stereo not drawn) + Cc1cccc(N(C)C(=O)C2C(O)CCN2c2nc(C)cc(C(F)(F)F)c2C#N)c1
IC50 (second compound 0.0316 µM): 142 nM
IC50 (second compound 0.1 µM): 123 nM
IC50 (second compound 0.316 µM): 115 nM
IC50 (second compound 1 µM): 83.6 nM
IC50 (second compound 3.16 µM): 83.7 nM
IC50 (second compound 10 µM): 79.5 nM
viability, T/C [1]: 73.8%
viability, T/C [2]: 68.2%
viability, T/C [3]: 8.09%
viability, T/C [4]: 0.74%
viability, T/C [5]: 1.88%
viability, T/C [6]: 3.67%
viability, T/C [7]: 77.1%
viability, T/C [8]: 59.3%
viability, T/C [9]: 7.54%
viability, T/C [10]: 0.78%
viability, T/C [11]: 3.07%
viability, T/C [12]: 5.78%
viability, T/C [13]: 89.2%
viability, T/C [14]: 55.7%
viability, T/C [15]: 9.71%
viability, T/C [16]: 0.66%
viability, T/C [17]: 2.56%
viability, T/C [18]: 5.49%
viability, T/C [19]: 102%
viability, T/C [20]: 40.4%
viability, T/C [21]: 7.53%
viability, T/C [22]: 0.6%
viability, T/C [23]: 2.63%
viability, T/C [24]: 4.09%
viability, T/C [25]: 99.3%
viability, T/C [26]: 41%
viability, T/C [27]: 6.13%
viability, T/C [28]: 0.63%
viability, T/C [29]: 3.14%
viability, T/C [30]: 4.04%
viability, T/C [31]: 94%
viability, T/C [32]: 39%
viability, T/C [33]: 5.5%
viability, T/C [34]: 1.83%
viability, T/C [35]: 3.46%
viability, T/C [36]: 3.24%
